# Paper PMC8834866, “2-Acetamido-2-deoxy-D-glucono-1,5-lactone Sulfonylhydrazones: Synthesis and Evaluation as Inhibitors of Human OGA and HexB Enzymes” (International Journal of Molecular Sciences, 2022)
# Where “and” joins values, the source holds several entries; their conditions need not be identical. Identical values can stand only once.
# Columns and labels:
# [1] = target: T1, hOGA (Homo sapiens, UniProt O60502); assay: hOGA inhibition, 4-MU-GlcNAc fluorescent substrate, Dixon plots (competitive model); format: biochemical; settings: for Ki(hHexB)/Ki(hOGA): ratio defines selectivity towards hOGA; for Ki: recombinant hOGA, 4-MU-GlcNAc, pH 7.5, 37 °C
# T1 construct: The gene construct encoding the full-length human OGA fused to N-terminal His6-tag; His6 (N); made in house
# T1 sequence (O60502 1-916): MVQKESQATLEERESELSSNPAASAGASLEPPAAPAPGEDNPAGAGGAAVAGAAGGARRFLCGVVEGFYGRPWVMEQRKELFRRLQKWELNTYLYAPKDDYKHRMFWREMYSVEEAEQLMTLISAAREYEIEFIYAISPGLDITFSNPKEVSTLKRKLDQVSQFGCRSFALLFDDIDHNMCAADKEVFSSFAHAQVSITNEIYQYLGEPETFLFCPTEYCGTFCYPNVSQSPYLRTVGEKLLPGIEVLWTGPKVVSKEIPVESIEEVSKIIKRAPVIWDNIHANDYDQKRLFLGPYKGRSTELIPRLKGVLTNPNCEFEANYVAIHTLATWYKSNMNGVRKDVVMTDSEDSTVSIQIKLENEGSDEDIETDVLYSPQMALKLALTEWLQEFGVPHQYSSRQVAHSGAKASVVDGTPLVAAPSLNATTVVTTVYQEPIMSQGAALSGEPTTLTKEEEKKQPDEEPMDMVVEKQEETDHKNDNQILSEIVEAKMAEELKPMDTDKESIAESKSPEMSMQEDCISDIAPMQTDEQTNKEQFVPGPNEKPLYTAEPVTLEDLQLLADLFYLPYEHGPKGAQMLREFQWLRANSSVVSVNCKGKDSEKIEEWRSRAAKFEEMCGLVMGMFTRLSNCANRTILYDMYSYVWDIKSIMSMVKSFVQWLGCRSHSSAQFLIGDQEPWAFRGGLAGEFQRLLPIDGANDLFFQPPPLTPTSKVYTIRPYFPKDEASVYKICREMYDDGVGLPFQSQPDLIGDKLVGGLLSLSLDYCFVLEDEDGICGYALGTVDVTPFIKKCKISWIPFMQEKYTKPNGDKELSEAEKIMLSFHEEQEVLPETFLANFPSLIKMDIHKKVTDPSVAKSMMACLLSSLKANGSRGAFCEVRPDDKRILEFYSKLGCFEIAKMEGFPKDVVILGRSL
# Experimental: (§1) The inhibitory potency of compounds 5a–f was evaluated against recombinant hOGA and hHexB enzymes. The enzymes were prepared and purified as described previously. For inhibition of hOGA, fluorescent 4-MU-GlcNAc was used as the substrate. […] In the case of inhibition of hHexB, Michaelis–Menten kinetics were evaluated using pNP-GlcNAc as a colorimetric substrate. Inhibition constants (Ki) were determined by nonlinear regression analyses by employing the competitive inhibition model (cf. the Experimental section and Supplementary Materials).
# (§2) The detailed protocol for the expression of hOGA and the subsequent purification procedure of the recombinant protein have been described in our previous work. The gene construct encoding the full-length human OGA fused to N-terminal His6-tag was kindly provided by Prof. D. Vocadlo (SFU, Burnaby, BC, Canada). Human β-N-acetylhexosaminidase B (hHexB) was expressed in Pichia pastoris, and the extracellularly produced enzyme was isolated according to the procedure described by Krejzová et al..
# The inhibitory potency of compounds 5a–f was evaluated against recombinant enzymes hOGA and hHexB. In the case of hOGA inhibition, 4-MU-GlcNAc was used as a substrate at three concentrations (7 µM, 12 µM, and 25 µM) in the reaction mixtures containing 50 mM potassium phosphate buffer (pH 7.5), an inhibitor 5a–f in a final concentration of 0 to 750 nM, and 3 nM hOGA. In all cases, the enzyme and the inhibitors were preincubated at 37 °C, then the reaction was initiated by the addition of the substrate. All reactions were carried out in a fluorescence cuvette (Hellma Analytics, Müllheim, Germany), held in the thermostat cell holder of a Jasco FP-8200 fluorescence spectrophotometer (Easton, MD, USA) equipped with a Xe lamp light source. The excitation of the reactions was performed at […] and emission was detected at […] every 10 s for 10 min. All measurements were performed in triplicates. Initial velocities were determined and the reciprocal of initial velocities was plotted against inhibitor concentrations. The inhibitory mode of the compounds on hOGA was assessed by the Cornish–Bowden method, which involves the plotting of [S]/v0 vs. inhibitor concentrations. […] Inhibition constants (Ki) were determined according to the competitive model of the Dixon method by plotting the reciprocal of initial velocities vs. inhibitor concentrations. The intersection point of the linearly fitted lines gave Ki in nM.
# [2] = target: OGA; settings: cited from earlier work
# [3] = target: HexA/B; design: method as in PMID 34186233; settings: enzyme contains two predominant isozymes, Hex A and Hex B; cited from earlier work
# [4] = target: T2, hHexB (Homo sapiens, UniProt P07686); assay: hHexB inhibition, pNP-GlcNAc colorimetric substrate, Michaelis–Menten kinetics; format: biochemical; settings: recombinant hHexB, pH 5.0, 35 °C
# T2 construct: made in house; host or cells: Pichia pastoris
# T2 sequence (P07686 122-556): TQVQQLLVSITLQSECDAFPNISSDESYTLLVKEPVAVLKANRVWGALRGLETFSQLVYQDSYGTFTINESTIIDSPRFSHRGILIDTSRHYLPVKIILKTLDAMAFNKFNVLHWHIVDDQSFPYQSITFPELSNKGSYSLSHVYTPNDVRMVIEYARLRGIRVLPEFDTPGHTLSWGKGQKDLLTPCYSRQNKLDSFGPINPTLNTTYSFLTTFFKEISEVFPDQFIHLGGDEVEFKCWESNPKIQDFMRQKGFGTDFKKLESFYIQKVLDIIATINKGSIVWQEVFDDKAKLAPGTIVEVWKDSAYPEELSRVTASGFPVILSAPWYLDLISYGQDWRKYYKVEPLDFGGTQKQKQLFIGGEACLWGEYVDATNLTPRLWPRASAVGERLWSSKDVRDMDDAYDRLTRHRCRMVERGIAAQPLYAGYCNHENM
# Experimental: as §1, §2
# In the case of hHexB inhibition, Michaelis–Menten kinetics were evaluated using pNP-GlcNAc as a substrate. The kinetic reactions took place in Eppendorf tubes in a final volume of 400 μL containing 24 nM HexB, pNP-GlcNAc substrate in the range of 0.1–3 mM, and various inhibitor concentrations ranging from 0 to 300 nM in 50 mM citrate-phosphate buffer, pH 5.0. The reactions were incubated at 35 °C and then 50 μL samples were taken every 60 s. Samples were mixed with a quenching solution of 150 μL 0.1 M Na2CO3 and the absorbance of the solutions was measured at 420 nm by a Tecan Sunrise plate reader (Männedorf, Switzerland). All measurements were performed in triplicates. Initial velocities were determined from the data points by linear fit, and then nonlinear regression analyses were performed using the competitive inhibition model to calculate Ki values. GraphPad Prism software was used for the calculations.
# [5] = target: HexB; settings: cited from earlier work
Ki(hHexB)/Ki(hOGA) [1],Ki [1],melting point,Ki [4] [nM],Structure (SMILES),Ki [2] [nM],Ki [3] [nM],Ki [5] [nM]
0.27,78 ± 1 nM,165 to 166 °C,21 ± 2,"CC(=O)N[C@H]1C(=NNS(=O)(=O)c2ccc(C)cc2)O[C@H](CO)[C@@H](O)[C@@H]1O [5a, 2-Acetamido-2-deoxy-D-glucono-1,5-lactone p-Toluenesulfonylhydrazone]",,,
0.21,230 ± 17 nM,175 to 176 °C (dec.),48 ± 4,"CC(=O)N[C@H]1C(=NNS(=O)(=O)c2ccc(C(F)(F)F)cc2)O[C@H](CO)[C@@H](O)[C@@H]1O [5b, 2-Acetamido-2-deoxy-D-glucono-1,5-lactone p-Trifluoromethylbenzenesulfonylhydrazone]",,,
,95 ± 11 nM,175 to 177 °C,45 ± 3,"CC(=O)N[C@H]1C(=NNS(=O)(=O)c2ccc(F)cc2)O[C@H](CO)[C@@H](O)[C@@H]1O [5c, 2-Acetamido-2-deoxy-D-glucono-1,5-lactone p-Fluorobenzenesulfonylhydrazone]",,,
0.56,70 ± 3 nM,180 to 182 °C (dec.),39 ± 2,"CC(=O)N[C@H]1C(=NNS(=O)(=O)c2ccc(Cl)cc2)O[C@H](CO)[C@@H](O)[C@@H]1O [5d, 2-Acetamido-2-deoxy-D-glucono-1,5-lactone p-Chlorobenzenesulfonylhydrazone]",,,
1,~30 nM and 30 nM,172 to 173 °C,30 ± 3,"CC(=O)N[C@H]1C(=NNS(=O)(=O)c2ccc3ccccc3c2)O[C@H](CO)[C@@H](O)[C@@H]1O [5e, 2-Acetamido-2-deoxy-D-glucono-1,5-lactone 2-Naphthalenesulfonylhydrazone]",,,
0.25,27 ± 7 nM,145 to 147 °C,6.8 ± 1.8,"CC(=O)N[C@H]1/C(=N/NS(=O)(=O)c2cccc3ccccc23)O[C@H](CO)[C@@H](O)[C@@H]1O [5f, 2-Acetamido-2-deoxy-D-glucono-1,5-lactone 1-Naphthalenesulfonylhydrazone]",,,
,,,,CC(=O)N[C@H]1/C(=N/OC(=O)Nc2ccc(Br)cc2)O[C@H](CO)[C@@H](O)[C@@H]1O [I (4-Br-C6H4-)],56,,47
,,,,CC(=O)N[C@H]1/C(=N/OC(=O)Nc2ccc(C)cc2)O[C@H](CO)[C@@H](O)[C@@H]1O [I (4-Me-C6H4-)],28,,21
,,,,CC(=O)N[C@H]1/C(=N/NC(=O)Nc2ccc(Cl)cc2)O[C@H](CO)[C@@H](O)[C@@H]1O [II (4-Cl-C6H4-)],83,170,
,,,,CC(=O)N[C@H]1/C(=N/NC(=O)Nc2ccc(C)cc2)O[C@H](CO)[C@@H](O)[C@@H]1O [II (4-Me-C6H4-)],155,332,
,,,,CC(=O)N[C@H]1/C(=N/NC(=O)Nc2ccccc2)O[C@H](CO)[C@@H](O)[C@@H]1O [II (Ph)],190,205,

Structure (SMILES),Ki(hHexB)/Ki(hOGA) [1],Ki [1],melting point,Ki [4] [nM],Ki [2] [nM],Ki [3] [nM],Ki [5] [nM]
"CC(=O)N[C@H]1C(=NNC(=O)Nc2ccc3ccccc3c2)O[C@H](CO)[C@@H](O)[C@@H]1O [2-acetamido-2-deoxy-D-glucono-1,5-lactone 4-(2-naphthyl)-semicarbazone]",1.3,,,,36,47,
CC(=O)N[C@H]1/C(=N/OC(=O)Nc2ccccc2)O[C@H](CO)[C@@H](O)[C@@H]1O [PUGNAc],0.8,,,,46,,36
